The values below come from ChEMBL document CHEMBL4371026, “Prodrugs of the cancer cell selective anti-cancer agent (Z)-2-(1H-indol-3-yl)-3-(isoquinolin-5-yl)acrylonitrile (A131) are orally efficacious in a mouse model of resistant colon cancer” (Bioorg Med Chem Lett, 2019).

Series [1] can be described thus: Solubility of the compound in 10%DMSO/50%PEG400/40%H2O. In kind it is physicochemical.
Series [2] deals with HCT-15. Kind of series: Anticancer activity against paclitaxel-resistant human HCT15 cells xenografted in BALB/c athymic mouse assessed as tumor growth inhibition at 80 mg/kg, po administered twice a day for 12 days relative to control. It is filed as functional. As to conditions: HCT-15, po, 288 h, read-out: TGI.
The subject of series [3] is HCT-15. Briefly: Anticancer activity against paclitaxel-resistant human HCT15 cells xenografted in BALB/c athymic mouse assessed as tumor volume at 40 mg/kg, ip administered twice a day for 12 days measured on day 1 (reference value: 110 +/- 11 mm3). It is filed as functional.
Series [4] relates to HCT-15. Kind of series: Anticancer activity against paclitaxel-resistant human HCT15 cells xenografted in BALB/c athymic mouse assessed as tumor volume at 40 mg/kg, ip administered twice a day for 12 days measured on day 3 (reference value: 180 +/- 36 mm3). It is filed as functional. A general note: Xenograft models place foreign cells or tissue in a host animal.
Series [5] relates to HCT-15. Briefly: Anticancer activity against paclitaxel-resistant human HCT15 cells xenografted in BALB/c athymic mouse assessed as tumor volume at 40 mg/kg, ip administered twice a day for 12 days measured on day 5 (reference value: 329 +/- 45 mm3). In kind it is functional.
Series [6] relates to HCT-15. Kind of series: Anticancer activity against paclitaxel-resistant human HCT15 cells xenografted in BALB/c athymic mouse assessed as tumor volume at 40 mg/kg, ip administered twice a day for 12 days measured on day 7 (reference value: 495 +/- 109 mm3). In kind it is functional.
The test system of series [7] is HCT-15. Briefly: Anticancer activity against paclitaxel-resistant human HCT15 cells xenografted in BALB/c athymic mouse assessed as tumor volume at 40 mg/kg, ip administered twice a day for 12 days measured on day 9 (reference value: 546 +/- 87 mm3). It is filed as functional.
The test system of series [8] is HCT-15. Kind of series: Anticancer activity against paclitaxel-resistant human HCT15 cells xenografted in BALB/c athymic mouse assessed as tumor volume at 40 mg/kg, ip administered twice a day for 12 days measured on day 12 (reference value: 779 +/- 144 mm3). It is filed as functional.
The test system of series [9] is HCT-15. Briefly: Anticancer activity against paclitaxel-resistant human HCT15 cells xenografted in BALB/c athymic mouse assessed as tumor volume at 80 mg/kg, po administered twice a day for 12 days measured on day 1 (reference value: 110 +/- 11 mm3). It is filed as functional.
The test system of series [10] is HCT-15. Kind of series: Anticancer activity against paclitaxel-resistant human HCT15 cells xenografted in BALB/c athymic mouse assessed as tumor volume at 80 mg/kg, po administered twice a day for 12 days measured on day 3 (reference value: 180 +/- 36 mm3). It is filed as functional.
For series [11], the system named is HCT-15. Kind of series: Anticancer activity against paclitaxel-resistant human HCT15 cells xenografted in BALB/c athymic mouse assessed as tumor volume at 80 mg/kg, po administered twice a day for 12 days measured on day 5 (reference value: 329 +/- 45 mm3). In kind it is functional.
Series [12] has as its system HCT-15. Briefly: Anticancer activity against paclitaxel-resistant human HCT15 cells xenografted in BALB/c athymic mouse assessed as tumor volume at 80 mg/kg, po administered twice a day for 12 days measured on day 7 (reference value: 495 +/- 109 mm3). In kind it is functional.
In series [13] the test system is HCT-15. Kind of series: Anticancer activity against paclitaxel-resistant human HCT15 cells xenografted in BALB/c athymic mouse assessed as tumor volume at 80 mg/kg, po administered twice a day for 12 days measured on day 9 (reference value: 546 +/- 87 mm3). It is filed as functional.
Series [14] deals with HCT-15. Briefly: Anticancer activity against paclitaxel-resistant human HCT15 cells xenografted in BALB/c athymic mouse assessed as tumor volume at 80 mg/kg, po administered twice a day for 12 days measured on day 12 (reference value: 779 +/- 144 mm3). It is filed as functional.

SMILES strings stand for the structures.

One may read the solubility as the concentration that dissolves in the medium under given conditions. Higher therefore signals much dissolved substance. For the compound `CN1CCN(CC(=O)n2cc(/C(C#N)=C/c3cccc4cnccc34)c3ccccc32)CC1.O=C(O)C(F)(F)F`, the concentration in solution in series [1] (solubility) came to 8000 µg/mL. Also, the inhibition in vivo at 80 mg/kg in series [2] fell in the range of 75.8 to 76%. In addition, the Activity in series [3] was 100 mm3; in series [4], 109 mm3; in series [5], 199 mm3; in [6], 171 mm3; in series [7], 196 mm3; in [8], 244 mm3. Besides, the Activity is 96 mm3 in series [9]; 95 mm3 in series [10]; 143 mm3 in series [11]; 165 mm3 in series [12]; 209 mm3 in series [13]; 258 mm3 in series [14].
